# In ChEMBL document CHEMBL6182891, “Discovery of novel 1,2,3-Triazole hybrids derivatives as vasorelaxant agents: Molecular structure, Hirshfeld surface, in-vivo and in-silico investigation by molecular docking simulation” (Eur J Med Chem, 2025):
# Tested on: Aorta
# Test: Vasorelaxant activity in endothelium-intact thoracic aortic rings of albino adult male Wistar rat assessed as reduction in epinephrine-induced contracture
# Assay type: functional, tissue-based
# Conditions: not given
row,Structure (SMILES),EC50
1,Cc1ccccc1NC(=O)Cn1cc(COC(Cn2cnc3ccccc3c2=O)c2ccccc2)nn1 (centres undefined),246 µM
2,O=C(Cn1cc(COC(Cn2cnc3ccccc3c2=O)c2ccccc2)nn1)Nc1ccc(Cl)cc1 (centres undefined),198 µM
3,O=C(Cn1cc(COC(Cn2cnc3ccccc3c2=O)c2ccccc2)nn1)Nc1ccc(F)cc1 (centres undefined),345 µM

# Further compounds by falling EC50, results first:
row,EC50,Structure (SMILES)
1,1040 µM,Cc1ccc(NC(=O)Cn2cc(COC(Cn3cnc4ccccc4c3=O)c3ccccc3)nn2)cc1 (centres undefined)
2,568 µM,O=C(Cn1cc(COC(Cn2cnc3ccccc3c2=O)c2ccccc2)nn1)Nc1ccccc1 (centres undefined)
3,387 µM,COc1ccc(NC(=O)Cn2cc(COC(Cn3cnc4ccccc4c3=O)c3ccccc3)nn2)cc1 (centres undefined)
4,39 µM,COc1ccc(CCN(C)CCCC(C#N)(c2ccc(OC)c(OC)c2)C(C)C)cc1OC (centres undefined) [VERAPAMIL]

# Tested on: Aorta
# Test: Vasorelaxant activity in endothelium-intact thoracic aortic rings of albino adult male Wistar rat assessed as reduction in epinephrine-induced contracture at 0.05 to 0.2 mg/ml relative to control
# Assay type: functional
# Conditions: dose 0.05-0.2 mg/ml
row,Structure (SMILES),Emax
1,Cc1ccccc1NC(=O)Cn1cc(COC(Cn2cnc3ccccc3c2=O)c2ccccc2)nn1 (centres undefined),93.5%
2,Cc1ccc(NC(=O)Cn2cc(COC(Cn3cnc4ccccc4c3=O)c3ccccc3)nn2)cc1 (centres undefined),16.4%
3,COc1ccc(NC(=O)Cn2cc(COC(Cn3cnc4ccccc4c3=O)c3ccccc3)nn2)cc1 (centres undefined),50.9%
4,O=C(Cn1cc(COC(Cn2cnc3ccccc3c2=O)c2ccccc2)nn1)Nc1ccc(Cl)cc1 (centres undefined),95.1%
5,COc1ccc(CCN(C)CCCC(C#N)(c2ccc(OC)c(OC)c2)C(C)C)cc1OC (centres undefined) [VERAPAMIL],61.7%
6,O=C(Cn1cc(COC(Cn2cnc3ccccc3c2=O)c2ccccc2)nn1)Nc1ccc(F)cc1 (centres undefined),48.2%
7,O=C(Cn1cc(COC(Cn2cnc3ccccc3c2=O)c2ccccc2)nn1)Nc1ccccc1 (centres undefined),35%
